Measurements published in PMC6644236, “Cytotoxicity of Crude Extract and Isolated Constituents of the Dichrostachys cinerea Bark towards Multifactorial Drug-Resistant Cancer Cells” (Evidence-based Complementary and Alternative Medicine : eCAM, 2019).
Like-named read-outs stand apart in the source and are kept apart here.

Tests used:
CCRF-CEM leukemia cells = assay: Resazurin reduction cytotoxicity assay; assay type: cell-based; conditions: 72 h incubation
Method: (§2) The Infinite M2000 Pro™ plate reader (Tecan, Crailsheim, Germany) with excitation wavelength of 544 nm and an emission wavelength of 590 nm was used to read the fluorescence after 72 h incubation. IC50 values earlier defined [13] were calculated from a calibration curve by linear regression using Microsoft Excel [24]. The degree of resistance (D.R.) was determined as the IC50 value of the resistant cell line versus that of its sensitive congeners; meanwhile, the selectivity index (S.I.) was the IC50 value in normal AML12 hepatocytes versus that in HepG2 hepatocarcinoma.

Normal AML12 hepatocytes = assay: Resazurin reduction cytotoxicity assay; assay type: cell-based; conditions: for IC50: Mus musculus, normal AML12 hepatocytes, 72 h incubation; for Selectivity index: IC50 in normal AML12 hepatocytes divided by IC50 in HepG2
Text: (§3) Drug-sensitive and drug-resistant cancer cell lines of previously reported origin were used in this study. These included drug-sensitive CCRF-CEM leukemia cells and its multidrug-resistant P-glycoprotein-overexpressing subline CEM/ADR5000 cells [14–16], MDA-MB-231-pcDNA breast cancer cells and their resistant subline MDA-MB-231-BCRP clone 23 cells [17], HCT116 p53^+/+colon cancer cells and their knockout clone HCT116 p53^−/− cells, and U87.MG glioblastoma cells and their resistant subline U87.MGΔEGFR cells [18, 19]. Normal AML12 hepatocytes were used and compared with HepG2 hepatocarcinoma cells [18, 19].
as §2

[1] = tested on: MDA-MB-231-pcDNA breast cancer cells; assay: Resazurin reduction cytotoxicity assay; assay type: cell-based; conditions: 72 h incubation
[2] = tested on: HepG2 hepatocarcinoma cells; assay: Resazurin reduction cytotoxicity assay; assay type: cell-based; conditions: Homo sapiens; HepG2, 72 h incubation
Method: as §2

HCT116 p53-/- cells = assay: Resazurin reduction cytotoxicity assay; assay type: cell-based; conditions: for IC50: Homo sapiens, HCT-116, HCT116(p53-/-), 72 h incubation; for Degree of resistance: IC50 in HCT116 (p53-/-) divided by IC50 in HCT116 (p53+/+)
Text: as §3, §2

U87.MGΔEGFR cells = assay: Resazurin reduction cytotoxicity assay; assay type: cell-based; conditions: for Degree of resistance: IC50 in U87MG.ΔEGFR divided by IC50 in U87MG; for IC50: U87MG.ΔEGFR, 72 h incubation
Text: as §3, §2

[3] = tested on: U87.MG glioblastoma cells; assay: Resazurin reduction cytotoxicity assay; assay type: cell-based; conditions: Homo sapiens, U-87 MG; U87MG, 72 h incubation
CCRF-CEM cells [4] = assay: Cell cycle analysis by flow cytometry (PI); assay type: cell-based; conditions: 24 h
Method: Aliquots of 1×10^6 CCRF-CEM cells were treated with the studied samples (DCB and compound 1), the reference drug (doxorubicin), or the solvent control (DMSO) at various concentrations. […] The BD Accuri C6 Flow Cytometer (BD Biosciences, Heidelberg, Germany) was used to measure the propidium iodide (PI) fluorescence of individual nuclei. Assays were repeated at least three times and in triplicate.

[5] = tested on: CEM/ADR5000 cells (multidrug-resistant P-glycoprotein-overexpressing subline); assay: Resazurin reduction cytotoxicity assay; assay type: cell-based; conditions: for Degree of resistance: IC50 in CEM/ADR5000 divided by IC50 in CCRF-CEM; for IC50: CEM/ADR5000, 72 h incubation
Text: as §3, §2

[6] = tested on: MDA-MB-231-BCRP clone 23 cells; assay: Resazurin reduction cytotoxicity assay; conditions: for Degree of resistance: IC50 in MDA-MB-231-BCRP divided by IC50 in MDA-MB-231-pcDNA; for IC50: MDA-MB-231/BCRP, 72 h
Text: as §3, §2

CCRF-CEM cells [7] = assay: Mitochondrial membrane potential (MMP), JC-1 staining; assay type: cell-based; conditions: 24 h
Method: The mitochondrial membrane potential (MMP) of CCRF-CEM cells was analyzed after 24 h treatment with DCB, compound 1, or valinomycin (mitochondrial gradient dissipation substance or positive control). The 5,5′,6,6′-tetrachloro-1,1′,3,3′-tetraethylbenzimidazolyl carbocyanine iodide (JC-1; Biomol, Hamburg, Germany) staining was used to measure the MMP similarly as previously reported.

[8] = tested on: HCT116 p53+/+ colon cancer cells; assay: Resazurin reduction cytotoxicity assay; assay type: cell-based
[9] = tested on: 9 tested cancer cell lines; assay: Resazurin reduction cytotoxicity assay, whole panel; assay type: cell-based; conditions: for IC50: all tested cancer cell lines, 72 h incubation, read-out: IC50 values over the tested cancer cell lines
Text: These included drug-sensitive CCRF-CEM leukemia cells and its multidrug-resistant P-glycoprotein-overexpressing subline CEM/ADR5000 cells [14–16], MDA-MB-231-pcDNA breast cancer cells and their resistant subline MDA-MB-231-BCRP clone 23 cells [17], HCT116 p53^+/+colon cancer cells and their knockout clone HCT116 p53^−/− cells, and U87.MG glioblastoma cells and their resistant subline U87.MGΔEGFR cells [18, 19]. Normal AML12 hepatocytes were used and compared with HepG2 hepatocarcinoma cells [18, 19].
as §2

caspases 3/7 = assay: Caspase-Glo 3/7 assay; assay type: cell-based; conditions: CCRF-CEM, 6 h, optimal effects at 8.8 μM
Method: (§1) After 6 h treatment of CCRF-CEM cells with DCB and triterpenoid 1 for 6 h, caspases activities were evaluated with Caspase-Glo 3/7, 8, and 9 assay kits (Promega, Mannheim, Germany) similarly as previously reported.

[10] = tested on: normal PBL peripheral blood lymphoblast; set-up: method as in PMID 11734332; conditions: ref [36]; cited from earlier work
CCRF-CEM cells [11] = assay: Annexin V/PI staining, apoptosis by flow cytometry; conditions: 24 h, 2 × IC50
Method: The experimental conditions were similar to those earlier reported (24 h incubation; humidified 5% CO2 atmosphere; 37°C) [13]. The BD Accuri C6 Flow Cytometer was then used to analyze apoptosis using fluorescein isothiocyanate (FITC)-conjugated annexin V/PI assay kit (eBioscience™ Annexin V; Invitrogen, San Diego, USA) similarly as reported earlier [13, 22, 23]; early apoptosis for cells stained with only annexin V; late apoptosis or in a necrotic stage for cells stained with both annexin V and propidium iodide [13, 25, 26].

HEK293 cells = tested on: HEK293 cells; set-up: method as in PMID 29867487, PMID 11734332; conditions: lowest of the reported range, ref [34], [36]; cited from earlier work
caspase 9 = assay: Caspase-Glo 9 assay; assay type: cell-based; conditions: CCRF-CEM, 6 h, optimal effects at 8.8 μM
Method: as §1

[12] = tested on: CEM/ADR5000 leukemia cells; set-up: method as in PMID 29867487; conditions: CEM/ADR5000 compared to CCRF-CEM; ref [34]; cited from earlier work
CCRF-CEM cells [13] = tested on: CCRF-CEM cells; set-up: method as in PMID 29867487, PMID 11734332; conditions: highest of the reported range, ref [34], [36]; cited from earlier work
CCRF-CEM cells [14] = assay: ROS production, H2DCFH-DA; assay type: cell-based; conditions: 24 h, 2 × IC50 (11.38 μg/mL crude extract; 17.60 μM compound 1)
Method: The measurement of ROS production using 2′,7′-dichlorodihydrofluorescein diacetate (H2DCFH-DA) (Sigma-Aldrich) was done in CCRF-CEM cells were treated with DCB, compound 1, a solvent control (DMSO), or a positive control, hydrogen peroxide (H2O2) for 24 h, in similar experimental conditions as documented earlier.

caspase 8 = assay: Caspase-Glo 8 assay; assay type: cell-based; conditions: CCRF-CEM, 6 h, optimal effects at 8.8 μM
Method: as §1

[15] = Homo sapiens, HCT-116, 72 h, 72 h incubation

## COc1cccc2c1C(=O)c1c(O)c3c(c(O)c1C2=O)C[C@@](O)(C(=O)CO)C[C@@H]3O[C@H]1C[C@H](N)[C@H](O)[C@H](C)O1 [Doxorubicin, doxorubicin, reference compound]
CCRF-CEM leukemia cells; Homo sapiens
  IC50: 0.02 µM
Normal AML12 hepatocytes
  IC50: 52.9 ± 4.09 µM
[1]
  IC50: 0.13 ± 0.01 µM
[2]
  IC50: 4.56 ± 0.48 µM
HCT116 p53-/- cells
  IC50: 1.78 ± 0.08 µM
  Degree of resistance: 3.73
U87.MGΔEGFR cells
  Degree of resistance: 3.79
  IC50: 0.98 ± 0.07 µM
[3]
  IC50: 0.26 ± 0.03 µM
CCRF-CEM cells [4]
  Cell cycle arrest (phase): between S and G2/M
[5]
  Degree of resistance: 6,683.00
[6]
  Degree of resistance: 6.14
  IC50: 0.79 ± 0.08 µM

## CC(C)[C@@H]1NC(=O)[C@H](C)OC(=O)[C@@H](C(C)C)NC(=O)[C@@H](C(C)C)OC(=O)[C@H](C(C)C)NC(=O)[C@H](C)OC(=O)[C@@H](C(C)C)NC(=O)[C@@H](C(C)C)OC(=O)[C@H](C(C)C)NC(=O)[C@H](C)OC(=O)[C@@H](C(C)C)NC(=O)[C@@H](C(C)C)OC1=O [Valinomycin, valinomycin, reference compound]
CCRF-CEM cells [7]; 10 μM
  Q1 intact cells: 54.1%
  Q2 loss of MMP: 45.9%
  Q3 ruptured cell membrane: 0.00%
  Q4 ruptured cell membrane: 0.00%

## CCCCCCCCCCCCCCCCCCCCCCCCCC(=O)OCC(O)CO (stereo not shown) [Compound 2, glyceryl-1-hexacosanoate]
CCRF-CEM leukemia cells; Homo sapiens
  IC50: > 100 µM
Normal AML12 hepatocytes
  IC50: > 100 µM
[1]
  IC50: > 100 µM
[2]
  IC50: > 100 µM
[8]; [15]
  IC50: > 100 µM
HCT116 p53-/- cells
  IC50: > 100 µM
U87.MGΔEGFR cells
  IC50: > 100 µM
[9]; 72 h
  IC50: > 100 µM
[3]
  IC50: > 100 µM
[5]; Homo sapiens
  IC50: > 100 µM
[6]
  IC50: > 100 µM

## O=c1cc(-c2ccc(O)cc2)oc2cc(O)ccc12 [Compound 3, 7-hydroxy-2-(4-hydroxyphenyl)-4H-chromen-4-one]
CCRF-CEM leukemia cells; Homo sapiens
  IC50: 31.2 ± 0.98 µM
Normal AML12 hepatocytes
  IC50: > 100 µM
[1]
  IC50: 75.5 ± 5.16 µM
[2]
  IC50: 48.6 ± 7.09 µM
[8]; Homo sapiens, HCT-116, 72 h incubation
  IC50: > 100 µM
HCT116 p53-/- cells
  IC50: 66.3 ± 5.67 µM
  Degree of resistance: < 0.66
U87.MGΔEGFR cells
  Degree of resistance: 0.88
  IC50: 53.8 ± 6.1 µM
[9]
  IC50: > 10 µM
[3]
  IC50: 61.3 ± 5.87 µM
[5]; Homo sapiens
  IC50: 124 ± 20.2 µM
[5]
  Degree of resistance: 3.98
[6]
  Degree of resistance: 1.06
  IC50: 80 ± 1.61 µM

## C=C(C)[C@@H]1CC[C@]2(C(=O)O)CC[C@]3(C)[C@H](CC[C@@H]4[C@@]5(C)CC[C@H](O)C(C)(C)[C@@H]5CC[C@]43C)[C@@H]12 [Compound 1, betulinic acid]
CCRF-CEM leukemia cells
  IC50: 8.8 ± 0.35 µM
CCRF-CEM leukemia cells; Homo sapiens, 72 h
  IC50: < 10 µM
Caspases 3/7
  Increase in the activity of caspases 3/7: 3.19 fold
[10]
  Cytotoxicity towards normal cells: low cytotoxicity
Normal AML12 hepatocytes
  Selectivity index: > 2.13
  IC50: > 93.9 µM
CCRF-CEM cells [11]
  Q9-LR early apoptotic cells annexin (+)/PI (-): 51.0%
  Q9-UL annexin V (-)/PI (+) cells (necrosis): 5.1%
[1]
  IC50: 38.8 ± 0.94 µM
HEK293 cells
  IC50: 15.1 µM
[2]
  IC50: 44.2 ± 3.15 µM
[8]; [15]
  IC50: 31.5 ± 0.49 µM
Caspase 9
  Increase in the activity of caspase 9: 2.37 fold
[12]
  Sensitivity of resistant cells compared to sensitive congener: hypersensitivity
HCT116 p53-/- cells
  IC50: 17.1 ± 0.7 µM
  Degree of resistance: 0.54
CCRF-CEM cells [7]; 1/2 × IC50
  Q1 intact cells: 83.0%
  Q2 loss of MMP: 1.28%
  Q3 ruptured cell membrane: 0.291%
  Q4 ruptured cell membrane: 15.4%
CCRF-CEM cells [7]; 1/4 × IC50
  Q1 intact cells: 88.0%
  Q2 loss of MMP: 1.43%
  Q3 ruptured cell membrane: 0.057%
  Q4 ruptured cell membrane: 10.6%
CCRF-CEM cells [7]; 2 × IC50
  Q1 intact cells: 42.5%
  Q2 loss of MMP: 57.5%
  Q3 ruptured cell membrane: 0.00%
  Q4 ruptured cell membrane: 0.00%
CCRF-CEM cells [7]; IC50
  Q1 intact cells: 51.8%
  Q2 loss of MMP: 48.2%
  Q3 ruptured cell membrane: 0.00%
  Q4 ruptured cell membrane: 0.00%
U87.MGΔEGFR cells
  Degree of resistance: 0.56
  IC50: 13.9 ± 1.06 µM
CCRF-CEM cells [13]
  IC50: 29.4 µM
CCRF-CEM cells [14]
  ROS production, percentage: 53.30%
Caspase 8
  Increase in the activity of caspase 8: 2.91 fold
[9]; 72 h
  IC50: < 50 µM
[9]; all resistant cell lines compared to their sensitive counterparts
  Degree of resistance (D.R.), all resistant cell lines: below 1
[3]
  IC50: 24.9 ± 0.33 µM
CCRF-CEM cells [4]; 1/4 × IC50
  Cell percentage Sub-G0/G1: 15.30%
CCRF-CEM cells [4]; 2 × IC50
  Cell percentage Sub-G0/G1: 48.40%
[5]
  IC50: 7.65 ± 1.46 µM
  Degree of resistance: 0.87
[5]; Homo sapiens, ADR5000, 72 h
  IC50: < 10 µM
[6]
  Degree of resistance: 0.64
  IC50: 24.9 ± 1.2 µM

## O=c1cc(-c2ccc(O)cc2)oc2ccc(O)cc12 [Compound 4, 6-hydroxy-2-(4-hydroxyphenyl)-4H-chromen-4-one]
CCRF-CEM leukemia cells; Homo sapiens
  IC50: 18.9 ± 1.54 µM
Normal AML12 hepatocytes
  Selectivity index: 1.59
  IC50: 53.9 ± 11.2 µM
[1]
  IC50: 45.8 ± 4.76 µM
[2]
  IC50: 34 ± 2.95 µM
[8]; 72 h incubation
  IC50: 48.9 ± 5.35 µM
[8]; [15]
  IC50: 88.9 µM
HCT116 p53-/- cells
  IC50: 48.6 ± 3.82 µM
  Degree of resistance: 1.00
U87.MGΔEGFR cells
  Degree of resistance: 1.02
  IC50: 44.6 ± 2.56 µM
[3]
  IC50: 43.9 ± 8.19 µM
[5]; Homo sapiens
  IC50: 38.8 ± 2.13 µM
[5]
  Degree of resistance: 2.05
[6]
  Degree of resistance: 0.88
  IC50: 40.5 ± 3.9 µM
